The values below come from patent US4142046A, “Intermediates for the preparation of 7-acyl-3-(substituted triazolylthiomethyl)cephalosporins” (SmithKline Corporation, priority 1976, dated 1979).

One assay concerns E. coli HH 33779. The experiment in a line: MIC in vitro. It counts as cell-based. The following applies: Escherichia coli, HH33779. As to the method:
(§1) The compounds of Formula I have antibacterial activity against both Gram-positive and Gram-negative organisms. Minimum inhibitory concentrations (MIC's) ranged from 0.2 to >200 μg./ml. in in vitro testing. […] Compound numbers corresponding to structures are given in the experimental section.

The next assay concerns E. coli SK 12140. In words: MIC in vitro. It counts as cell-based. The conditions noted are these: Escherichia coli, SK12140; E. coli SK 12140; read-out: MIC in vitro. As to the method:
as §1

Assay [1] relates to Entero. aerog. ATCC 13048. In words: MIC in vitro. It is filed as cell-based. As to the method: as §1
In another assay the test system is Entero. cloacae HH 31254. In words: MIC in vitro. It counts as cell-based. The conditions noted are these: Enterobacter cloacae, HH31254, read-out: MIC in vitro. As to the method:
as §1

A further assay concerns Kleb. pneumo. SK 1200. The experiment in a line: MIC in vitro. It counts as cell-based. The following applies: Kleb. pneumo. SK 1200; read-out: MIC in vitro. As to the method:
as §1

Another assay deals with Kleb. pneumo. SK 4200. The experiment in a line: MIC in vitro. The conditions noted are these: read-out: MIC in vitro. It is filed as cell-based. As to the method: as §1
The test system of a further assay is Proteus Morgani 179. In words: MIC in vitro. It is filed as cell-based. As to the method:
as §1

The next assay deals with Pseudo. sp. HH 63. In words: MIC in vitro. It is filed as cell-based. As to the method:
as §1

In another assay the test system is S. aureus HH 127. The experiment in a line: MIC in vitro. It is filed as cell-based. The following applies: Staphylococcus aureus, HH127, read-out: MIC in vitro. As to the method: as §1
The subject of a further assay is S. aureus SK 23390. In words: MIC in vitro. The conditions noted are these: Staphylococcus aureus, SK23390, read-out: MIC in vitro. It counts as cell-based. As to the method: as §1
The subject of another assay is S. villaluz. The experiment in a line: MIC in vitro. It is filed as cell-based. The conditions noted are these: read-out: MIC in vitro. As to the method: as §1
A further assay concerns Salmonella ATCC 12176. In words: MIC in vitro. It counts as cell-based. The following applies: ATCC12176. As to the method:
as §1

A further assay concerns Serra. marc. ATCC 13880. In words: MIC in vitro. It counts as cell-based. As to the method:
as §1

Another assay concerns Shigella HH 117. The experiment in a line: MIC in vitro. It is filed as cell-based. The conditions noted are these: Shigella, HH117, Shigella HH 117. As to the method: as §1
The next assay has as its system Strep. faecalis HH 34358. In words: MIC in vitro. It counts as cell-based. The following applies: Enterococcus faecalis, HH34358, Strep. faecalis HH 34358. As to the method: as §1
The next assay deals with E. coli 12140. In words: In vivo mouse protection (ED50).
A further assay has as its system Kleb. pneumo. 4200. The experiment in a line: In vivo mouse protection (ED50). The following applies: Mus musculus.

Values after ≈ are worked out from the molar mass of the structure shown.

`O=C(O)C1=C(CSc2[nH]nnc2C(=O)O)CS[C@@H]2C(NC(=O)[C@H](O)c3ccccc3)C(=O)N12` (stereo partly drawn) [VI, 7-D-Mandelamido-3-(4-carboxy-1,2,3-triazol-5-ylthiomethyl)-3-cephem-4-carboxylic acid]: the MIC (commonly the least concentration at which growth counts as inhibited) against E. coli HH 33779 was 25 µg/mL (≈ 50.9 µM); with E. coli SK 12140, 6.3 µg/mL (≈ 12.8 µM); in [1], 50 µg/mL (≈ 102 µM); in the assay on Entero. cloacae HH 31254, 12.5 µg/mL (≈ 25.4 µM); in the assay with Kleb. pneumo. SK 1200, 3.1 µg/mL (≈ 6.31 µM); with Kleb. pneumo. SK 4200, 12.5 µg/mL (≈ 25.4 µM). In addition, the MIC against Proteus Morgani 179 was over 200 µg/mL; in the assay on Pseudo. sp. HH 63, over 200 µg/mL; with S. aureus HH 127 it was 6.3 µg/mL (≈ 12.8 µM); in the assay with S. aureus SK 23390, 3.1 µg/mL (≈ 6.31 µM); with S. villaluz, 200 µg/mL (≈ 407 µM); against Salmonella ATCC 12176, 12.5 µg/mL (≈ 25.4 µM). The MIC with Serra. marc. ATCC 13880 is over 200 µg/mL; against Shigella HH 117, 6.3 µg/mL (≈ 12.8 µM); in the assay with Strep. faecalis HH 34358, over 200 µg/mL. For the same molecule, the ED50 (in general, the dose at which the effect has come halfway, by size or by number of responders) in the assay on E. coli 12140 (Escherichia coli, 12140, po, E. coli 12140, p.o.) was over 200 mg/kg; in the assay on E. coli 12140 (Escherichia coli, 12140, sc, E. coli 12140, s.c.) it was 25 mg/kg; in the assay on Kleb. pneumo. 4200 (po, Kleb. pneumo. 4200, p.o.), over 200 mg/kg; in the assay with Kleb. pneumo. 4200 (sc, Kleb. pneumo. 4200, s.c.) it was 86 mg/kg.
